Structures can show the parent of a compound that is named as a salt.
Legend:
Assay type in all cases: in vivo
[1] = tested on: weiblichen Mäusen eigener Zucht; test: Antidiabetic effect: blood glucose lowering after subcutaneous glucose load in mice; settings: 1 g/kg glucose s.c. 30 min later, serum glucose after a further 30 min
From the text: (§1) Die antidiabetische Wirkung der erfindungsgemäßen Verbindungen läßt sich als eine blutzuckersenkende Wirkung bei Versuchstieren messen. Die zu untersuchenden Substanzen wurden dazu in 1,5%iger Methylzellulose suspendiert und weiblichen Mäusen eigener Zucht mittels Schlundsonde appliziert. 30 Minuten später wurde 1 g Glukose pro kg Körpergewicht in Wasser gelöst und subkutan appliziert. Weitere 30 Minuten später wurde aus dem retroorbitalen Venenplexus Blut entnommen. Aus dem Serum wurde Glukose mit der Hexokinase-Methode mit Hilfe eines Analysenphotometers bestimmt.
In der nachstehenden Tabelle sind die bei dieser Versuchsanordnung beobachteten Blutzuckersenkungen in % einer mitgeführten Kontrollgruppe zusammengestellt. Die statistische Auswertung erfolgt nach dem t-Test nach Student mit p=0,05 als Signifikanzgrenze.

[2] = tested on: weiblichen Mäusen eigener Zucht; test: Antiadipose effect a): increase of lipolysis measured as rise of serum glycerol in mice; settings: same procedure as the blood glucose test
From the text: as §1
Die antiadipöse Wirkung der erfindungsgemäßen Verbindungen wurde in zwei Versuchsanordnungen nachgewiesen: a) In der ersten Versuchsanordnung wurde die Steigerung der Lipolyse am Anstieg des Glyzerins im Serum gemessen. Der Versuchsablauf ist identisch mit der zur Testung auf blutzuckersenkende Wirkung vorstehend beschriebenen Versuchsanordnung. Glyzerin wurde in einem kombinierten enzymatisch-kolorimetrischen Test mit Hilfe eines Analysenphotometers bestimmt. Die Ergebnisse sind in der nachfolgenden Tabelle in % einer mitgeführten Kontrollgruppe aufgeführt.

[3] = tested on: Mäusen; test: Cardiac side effects: heart rate in mice by ECG-triggered tachograph; settings: 1 hour after application
From the text: Das Auftreten von unerwünschten Nebenwirkungen auf das Herz konnte für die erfindungsgemäßen Verbindungen für den therapeutisch angestrebten stoffwechselaktiven Dosisbereich ausgeschlossen werden. Als Nachweis diente die Messung der Herzfrequenz an Mäusen während der Testung auf blutzuckersenkende Wirkung (s.o.). Eine Stunde nach der oralen Applikation der Verbindungen wurde die Herzfrequenz mittels EKG-getriggertem Tachographen bestimmte. Die nachfolgende Tabelle gibt die Änderung der Herzfrequenz in % der Kontrollgruppe wieder.

[4] = tested on: Mäusen; test: Antiadipose effect b): decrease of ovarian fat tissue weight in mice; settings: dose 0,3 mg/kg once daily by gavage; fat tissue weighed on day 5
From the text: b) In der zweiten Versuchsanordnung zur Erfassung antiadipö-ser Wirkung der erfindungsgemäßen Verbindungen wurde die Abnahme des Fettgewebes am Beispiel des Ovarfettgewebes gemessen. Die Verbindungen wurden zu diesem Zwecke Mäusen einmal täglich mittels Schlundsonde in 1,5%iger Methylzellulosesuspension appliziert. Am fünften Tag wurde das Ovarfettgewebe herauspräpariert und gewogen. In der nachfolgenden Tabelle sind die Ergebnisse in % einer mitgeführten Kontrollgruppe wiedergegeben.

[5] = dose 0,3 mg/kg oral, values in ( ) = not significant (p > 0.05)

SMILES: CC(Cc1ccc(OCCO)cc1)NCC(O)c1cccc(Cl)n1 (stereo not drawn) [Beispiel 2, N-[2-(4-(2-Hydroxyethoxy)phenyl)-1-methylethyl]-2-hydroxy-2-(6-chlor-pyridin-2-yl)ethanamin-hydrochlorid]
- Blutzuckersenkungen, % Änderung vom Wert der Kontrollgruppe ([1]; dose 0,1 mg/kg by gavage): -64%
- Anstieg des Glyzerins im Serum, % Änderung vom Wert der Kontrollgruppe ([2]; dose 0,1 mg/kg by gavage): +454%
- Änderung der Herzfrequenz, % Änderung vom Wert der Kontrollgruppe [3, 5]: (+6,9) %

SMILES: CC(Cc1ccc(OCCO)cc1)NCC(O)c1cccc(Cl)n1 (single isomer, unassigned) [Beispiel 5]
- Blutzuckersenkungen, % Änderung vom Wert der Kontrollgruppe ([1]; dose 0,3 mg/kg by gavage): -66%
- Anstieg des Glyzerins im Serum, % Änderung vom Wert der Kontrollgruppe ([2]; dose 0,3 mg/kg by gavage): +878%
- Abnahme des Ovarfettgewebes, % Änderung vom Wert der Kontrollgruppe [4]: -54%
- Änderung der Herzfrequenz, % Änderung vom Wert der Kontrollgruppe [3, 5]: (+27) %

SMILES: CC(Cc1ccc(OCC(=O)O)cc1)NCC(O)c1cccc(Cl)n1 (stereo not drawn) [Beispiel 3, N-[2-(4-Carboxymethoxyphenyl)-1-methylethyl]-2-hydroxy-2-(6-chlor-pyridin-2-yl)ethanamin]
- Anstieg des Glyzerins im Serum, % Änderung vom Wert der Kontrollgruppe ([2]; dose 0,3 mg/kg by gavage): +309%

SMILES: CC(Cc1ccc(OCC(=O)O)cc1)NCC(O)c1cccc(Cl)n1 (single isomer, unassigned) [Beispiel 4, N-[2-(4-Carboxymethoxyphenyl)-1-methylethyl]-2-hydroxy-2-(6-chlor-pyridin-2-yl)ethanamin]
- Anstieg des Glyzerins im Serum, % Änderung vom Wert der Kontrollgruppe ([2]; dose 0,3 mg/kg by gavage): +891%

SMILES: COC(=O)COc1ccc(CC(C)NCC(O)c2cccc(Cl)n2)cc1 (stereo not drawn) [Beispiel 1, N-[2-(4-Carbomethoxymethoxyphenyl)-1-methylethyl]-2-hydroxy-2-(6-chlor-pyridin-2-yl)ethanamin-hydrochlorid]
- Blutzuckersenkungen, % Änderung vom Wert der Kontrollgruppe ([1]; dose 1,0 mg/kg by gavage): -66%
- Anstieg des Glyzerins im Serum, % Änderung vom Wert der Kontrollgruppe ([2]; dose 1,0 mg/kg by gavage): +882%
- Änderung der Herzfrequenz, % Änderung vom Wert der Kontrollgruppe ([3]; dose 10 mg/kg oral): +35%

From EP0305845A1, “Pyridyl ethanol amines, pharmaceutical compositions containing them and processes for their preparation” (Dr. Karl Thomae GmbH, priority 1987, dated 1989)
